Results as given in US20190055590A1, “REGULARLY ARRANGED SPHEROIDS HAVING EQUAL SIZES AND USE THEREOF” (GAIA BioMedicine Inc., priority 2016, published 2019).

Legend:
[1] = test system: CT26 GFP+ cells; settings: 384-well plate, row with EDTA added (FIG. 1)
Description: 1. Proliferate CT26 GFP^+ cells to a subconfluent or confluent state, then remove the culture medium by suction, and then wash the cells with phosphate buffered saline (PBS, Invitrogen). 2. Remove PBS, then add a 0.05% trypsin solution [0.25% trypsin, 1 mmol/L EDTA•4Na (Invitrogen), diluted 5-fold with PBS], and allow the reaction under the conditions of 37° C., 5% CO2, and 95% air until cells are separated from the dish. 3. Add 10% FBS-RPMI 1640 to suspend the cells, and collect them. 4. Perform centrifugation (400 g, 3 minutes) at 4° C., and then re-suspend the precipitates (cells) in 10% FBS-RPMI 1640. 5. Mix a part of the cell suspension with 0.4% trypan blue solution (Sigma-Aldrich), and count live cells under a phase contrast microscope by using a cell counting plate (OneCell Counter, OneCell Inc.). 6. In the case of 2D culture, dilute the cell suspension with 10% FBS-0.1% DMSO-RPMI 1640 to 3.0×10^4 cells/mL, and inoculate the cells on a culture plate (ViewPlate-384, PerkinElmer) in a volume of 20 μL/well using BIOMEK (registered trademark) NXP (BECKMAN COULTER). 7. […]
1. Observe morphology of the spheroids by 2 types of methods, in a bright field and with fluorescence, by using IN Cell Analyzer 2000 (GE Healthcare) 72 Hours after the treatment with the drug. […] Evaluate the spheroids on the basis of the total fluorescence amount (density×area) obtained from GFP as an index. […]

[2] = test system: CT26 GFP+ cells; experiment: Tertiary screening: inhibition of spheroid formation, 2D vs 3D culture on 96 plate, ATP assay; assay type: cell-based; settings: 96-well U-shaped bottom plate, pre-treatment or post-treatment
Description: Inoculation onto 96 Plate 1. […] 2. […] 3. […] 4. […] 5. […] 6. […] 7. […] 8. […] 1. Serially dilute a compound from the highest concentration of 20 μM at a common ratio of 1/10 for 7 doses (1% DMSO) with the medium. 2. Subsequently, add 10 μL of the serially diluted compound to the cell plate after the inoculation. 3. As for addition time of the drug, add the drug immediately after the inoculation (pre-treatment), or one day after the inoculation (post-treatment). On the final day of the evaluation, add CellTiter-Glo (registered trademark) 3D cell Viability Assay in the same volume as that of the culture volume, and 15 to 30 minutes thereafter, perform pipetting. Subsequently, transfer 120 μL of the cell lysate to Black Plate as required, and measure luminescence with a luminometer (Enspire etc.).

[3] = test system: peritoneal dissemination (CT26 GFP+ cells); experiment: In vivo test: peritoneal dissemination after intraperitoneal transfer of CT26 GFP+ cells; design: species or system male BALB/c mice; settings: mice, comparison with the vehicle group on the final day (Tukey-Kramer HSD test)
Source text: 1. Use male BALB/c mice (henceforth referred to as mouse or mice, 6 to 8 weeks old at the time of use). 2. Put the mice in a plastic cage (W 136 mm×L 208 mm×H 115 mm) of which bottom is covered with a sterilized floor covering (Paper Clean, Japan SLC, Inc.) in a number of mice not larger than 5 mice per one cage until they are used for the experiments. 3. Allow the mice to ingest solid feed CRF-1 (Oriental Yeast Co., Ltd.) and tap water of water bottle ad libitum during the breeding period. 4. Perform individual identification of the mice by ear punching at the time of arrival of the mice (identification number starts from 01). 1. […] 2. […] 3. […] 4. […] 5. Inject 0.2 mL of the cell suspension into the abdominal cavity of each mouse (2.0×10^6 cells/body) by using a syringe with 26 G hypodermic needle (TERUMO CORP.). […] Spread the extracted alimentary canal on a 100-mm dish, and obtain images of the total alimentary canal in a bright field and with fluorescence by using BZ9000. […] On the last day of the evaluation, sacrifice the mice by cervical dislocation, open up the abdomen by midline incision, and collect the ascites reserved in the abdominal cavity with absorbent cotton of which weight is measured beforehand. […]

SMILES | spheroid formation [1] | ability to inhibit spheroid formation [2] | effect on peritoneal dissemination (fluorescence amount emitted from the alimentary canal extracted on the last evaluation day) ([3]; FIG. 6) | effect on peritoneal dissemination (weight of the ascites collected on the last evaluation day) ([3]; FIG. 7)
O=C(O)CN(CCN(CC(=O)O)CC(=O)O)CC(=O)O [EDTA] | no spheroid formation | – | – | –
O=C(NOC[C@H](O)CO)c1ccc(F)c(F)c1Nc1ccc(I)cc1F [PD0325901] | – | high ability to inhibit spheroid formation | confirmed in vivo | confirmed in vivo
